Data as given in patent US4801593A, “Chemotherapeutic agents” (Burroughs Wellcome Co., priority 1979, dated 1989).

system: rhinovirus serotype 1B; assay: plaque reduction (PR) test; type: cell-based; settings: Enterovirus, read-out: PR(ED50)
Method: (§1) Activity may be detected by the plaque inhibition (PI) test and measured by the plaque reduction (PR) test. Both assays involve the formation of a monolayer cell culture in a petri dish followed by infection with a virus suspension, and then overlaying the culture with nutrient agarose in the form of a gel. This gel ensures that there is no spread of virus throughout the culture and thus areas of localised cell destruction, or plaques, are formed.
Detectable activity is measured with the plaque reduction assay. A range of concentrations of compound of known molarity are incorporated in the nutrient agarose overlay. Plaque suppression is proportional to compound concentration. Plaque numbers are expressed as percentages of a control, and a dose response curve may be drawn. From this curve 50% of the effective dose(ED50) may be estimated.

Structure (SMILES)	EC50 [nM]
c1ccc(N2CCc3ccccc3C2)cc1 [Example 4, 2-phenyl-1,2,3,4-tetrahydroisoquinoline]	70

same assay, conditions: Enterovirus; Activity versus rhinovirus serotype 1B; monolayer cell culture, compound in nutrient agarose overlay; read-out: PR(ED50)

Structure (SMILES)	EC50 [nM]
Fc1ccc(N2CCc3ccccc3C2)cc1 [Example 8, 1,2,3,4-tetrohydro-2-(4-fluorophenyl)isoquinoline]	210
Cc1cccc(C)c1N1CCc2ccccc2C1 [Example 13, 1,2,3,4-tetrahydro-2-(2,6-dimethylphenyl)isoquinoline]	75
COc1ccc(N2CCc3ccccc3C2)c(OC)c1 [Example 16, 1,23,4-tetrahydro-2-(2-4-dimethoxyphenyl)isoquinoline]	8000
Clc1ccc(N2CCc3cc(Cl)ccc3C2)cc1 [Example 19, 1,2,3,4-tetrahydro-2-(4-chlorophenyl)-6-chloroisoquinoline]	50
Fc1ccc(N2CCc3cc(Cl)ccc3C2)cc1 [Example 20, 1,2,3,4-tetrahydro-2-(4-fluorophenyl)-6-chloroisoquinoline]	210
Clc1ccc2c(c1)CN(c1ccccc1)CC2 [Example 21, 7-chloro-2-phenyl-1,2,3,4-tetrahydroisoquinoline]	110
Clc1ccc(N2CCc3ccc(Cl)cc3C2)cc1 [Example 22, 7-chloro-2-(4-chlorophenyl)-1,2,3,4-tetrahydroisoquinoline]	130
c1ccc(C2Cc3ccccc3CN2)cc1 (centres unmarked) [Example 26, 3-phenyl-1,2,3,4-tetrahydroisoquinoline]	290
c1ccc(C2COc3ccccc3C2)cc1 (centres unmarked) [Example 27, isoflavan]	820

Now from value to compound:

EC50 [nM]	Structure (SMILES)
2450	COc1ccc(N2CCc3ccccc3C2)cc1 [Example 12, 1,2,3,4-tetrahydro-2-(4-methoxyphenyl)isoquinoline]
1850	Oc1ccc(N2CCc3ccccc3C2)cc1 [Example 15, 1,2,3,4-tetrahydro-2-(4-hydroxyphenyl)isoquinoline]
1000	Cc1ccc(N2CCc3ccccc3C2)cc1 [Example 11, 1,2,3,4-tetrahydro-2-(4-methylphenyl)isoquinoline]
620	Clc1ccc2c(c1)CN(c1ccc(Cl)c(Cl)c1)CC2 [Example 23, 7-chloro-2-(3,4-dichlorophenyl)-1,2,3,4-tetrahydroisoquinoline]
570	Clc1ccc2c(c1)CCN(c1ccccc1)C2 [Example 18, 6-chloro-2-phenyl-1,2,3,4-tetrahydroisoquinoline]
330	c1ccc(C2CCc3ccccc3N2)cc1 (centres unmarked) [Example 24, 1,2,3,4-tetrahydro-2-phenylquinoline]
100	Clc1ccc(N2CCc3ccccc3C2)cc1 [Example 7, 1,2,3,4-tetrahydro-2-(4-chlorophenyl)isoquinoline]
44	Clc1ccc(C2CCc3cc(Cl)ccc3S2)cc1 (centres unmarked) [Example 3, 4',6-dichlorothioflavan]
28	c1ccc(C2CCc3ccccc3S2)cc1 (centres unmarked) [Example 1, thioflavan]

system: virus; assay: Intranasal administration - simulation in vitro (plaque inhibition test, compound applied to the lids of the petri dishes); type: cell-based; settings: 1 μg applied in ethanol to the lids of the petri dishes; confluent sheet of cells covered with agarose gel
Text: as §1
In the plaque inhibition test a filter paper disc which holds 0.01 ml when impregnated with a solution of compound is placed on top of the agarose gel. The compound may then diffuse throughout the gel so that its greatest concentration will be around the disc and its lowest concentration towards the periphery of the petri dish. The efficacy of the compound may be detected by observing the zone of inhibition of plaque formation.
Petri dishes were prepared, as for the plaque inhibition test and the confluent sheet of cells was covered with a layer of agarose gel. The compound, 2-phenyltetrahydroisoquinoline (1 μg) was dissolved in ethanol, and applied to the lids of the petri dishes. When the ethanol had evaporated, leaving the compound spread over the inside of the lids, these were replaced on the petri dishes.

Structure (SMILES)	inhibition of plaque formation
c1ccc(N2CCc3ccccc3C2)cc1 [Example 4, 2-phenyl-1,2,3,4-tetrahydroisoquinoline]	total inhibition of plaque formation
